Patent publication US12371428B2 (Exelixis, Inc., priority 2019, dated 2025)
Counter-ions that a name gives are not always drawn.

Assays:
Type in all cases: cell-based
[1] = target: Met (phospho-Met, HGF-stimulated PC-3 prostate cancer cells) (Homo sapiens (Human), UniProt P08581); assay: Met autophosphorylation ELISA in PC-3 cells (Example F); details: cellular activity; Met autophosphorylation ELISA in PC-3 cells; read-out: c-Met IC50
How it was run: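 Compounds were tested on HGF-stimulated PC-3 cells. After 24 h culture and 3 h serum starvation, cells got compound for 1 h and 100 ng/mL HGF for 10 min, and Met tyrosine phosphorylation was measured by ELISA.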

[2] = target: Mer (phospho-Mer, MERTK-transfected 293A cells) (Homo sapiens (Human), UniProt Q12866); assay: Mer autophosphorylation ELISA in transient transfected 293A cells (Example H); details: cellular activity; Mer autophosphorylation ELISA in transient transfected 293A cells
Sequence of Mer (phospho-Mer, MERTK-transfected 293A cells) (Q12866 21-999): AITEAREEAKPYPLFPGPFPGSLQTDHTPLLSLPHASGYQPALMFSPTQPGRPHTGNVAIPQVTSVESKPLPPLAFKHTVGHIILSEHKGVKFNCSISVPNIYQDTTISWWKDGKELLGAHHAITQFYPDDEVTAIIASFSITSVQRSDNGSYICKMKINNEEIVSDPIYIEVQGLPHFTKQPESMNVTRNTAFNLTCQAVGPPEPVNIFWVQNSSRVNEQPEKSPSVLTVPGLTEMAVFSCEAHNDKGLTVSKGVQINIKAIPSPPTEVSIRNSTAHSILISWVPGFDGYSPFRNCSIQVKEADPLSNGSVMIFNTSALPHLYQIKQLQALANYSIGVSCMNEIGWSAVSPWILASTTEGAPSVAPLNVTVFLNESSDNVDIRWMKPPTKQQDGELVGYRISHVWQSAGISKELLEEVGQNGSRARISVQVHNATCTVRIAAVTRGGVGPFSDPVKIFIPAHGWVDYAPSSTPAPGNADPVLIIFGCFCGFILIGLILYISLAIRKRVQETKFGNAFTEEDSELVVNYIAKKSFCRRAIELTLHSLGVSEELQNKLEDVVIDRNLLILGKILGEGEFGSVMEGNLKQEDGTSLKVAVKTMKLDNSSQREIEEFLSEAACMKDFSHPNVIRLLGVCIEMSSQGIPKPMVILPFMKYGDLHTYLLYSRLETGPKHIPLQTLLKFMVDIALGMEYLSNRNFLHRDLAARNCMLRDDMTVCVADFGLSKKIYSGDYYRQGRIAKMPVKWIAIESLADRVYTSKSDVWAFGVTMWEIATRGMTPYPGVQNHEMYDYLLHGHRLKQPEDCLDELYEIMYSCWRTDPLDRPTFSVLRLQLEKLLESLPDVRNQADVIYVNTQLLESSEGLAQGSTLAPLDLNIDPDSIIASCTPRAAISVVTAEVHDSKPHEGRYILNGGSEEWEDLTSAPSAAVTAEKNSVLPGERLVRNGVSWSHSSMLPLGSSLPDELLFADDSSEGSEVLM
How it was run: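 IC50 from 4-parameter logistic fit of phospho-Mer levels, quantified by ELISA against a phospho-Mer standard in lysates of MERTK-transfected 293A cells. Cells exposed 1 h to 8-point serial dilutions, serum-free, 0.3% DMSO; controls: DMSO (100%) and reference inhibitor (0%).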

[3] = target: KDR (phospho-KDR, VEGF165-stimulated HUVEC cells) (Homo sapiens (Human), UniProt P35968); assay: KDR autophosphorylation ELISA in HUVEC cells (Example G); details: cellular activity; KDR autophosphorylation ELISA in HUVEC cells
Sequence of KDR (phospho-KDR, VEGF165-stimulated HUVEC cells) (P35968 20-1356): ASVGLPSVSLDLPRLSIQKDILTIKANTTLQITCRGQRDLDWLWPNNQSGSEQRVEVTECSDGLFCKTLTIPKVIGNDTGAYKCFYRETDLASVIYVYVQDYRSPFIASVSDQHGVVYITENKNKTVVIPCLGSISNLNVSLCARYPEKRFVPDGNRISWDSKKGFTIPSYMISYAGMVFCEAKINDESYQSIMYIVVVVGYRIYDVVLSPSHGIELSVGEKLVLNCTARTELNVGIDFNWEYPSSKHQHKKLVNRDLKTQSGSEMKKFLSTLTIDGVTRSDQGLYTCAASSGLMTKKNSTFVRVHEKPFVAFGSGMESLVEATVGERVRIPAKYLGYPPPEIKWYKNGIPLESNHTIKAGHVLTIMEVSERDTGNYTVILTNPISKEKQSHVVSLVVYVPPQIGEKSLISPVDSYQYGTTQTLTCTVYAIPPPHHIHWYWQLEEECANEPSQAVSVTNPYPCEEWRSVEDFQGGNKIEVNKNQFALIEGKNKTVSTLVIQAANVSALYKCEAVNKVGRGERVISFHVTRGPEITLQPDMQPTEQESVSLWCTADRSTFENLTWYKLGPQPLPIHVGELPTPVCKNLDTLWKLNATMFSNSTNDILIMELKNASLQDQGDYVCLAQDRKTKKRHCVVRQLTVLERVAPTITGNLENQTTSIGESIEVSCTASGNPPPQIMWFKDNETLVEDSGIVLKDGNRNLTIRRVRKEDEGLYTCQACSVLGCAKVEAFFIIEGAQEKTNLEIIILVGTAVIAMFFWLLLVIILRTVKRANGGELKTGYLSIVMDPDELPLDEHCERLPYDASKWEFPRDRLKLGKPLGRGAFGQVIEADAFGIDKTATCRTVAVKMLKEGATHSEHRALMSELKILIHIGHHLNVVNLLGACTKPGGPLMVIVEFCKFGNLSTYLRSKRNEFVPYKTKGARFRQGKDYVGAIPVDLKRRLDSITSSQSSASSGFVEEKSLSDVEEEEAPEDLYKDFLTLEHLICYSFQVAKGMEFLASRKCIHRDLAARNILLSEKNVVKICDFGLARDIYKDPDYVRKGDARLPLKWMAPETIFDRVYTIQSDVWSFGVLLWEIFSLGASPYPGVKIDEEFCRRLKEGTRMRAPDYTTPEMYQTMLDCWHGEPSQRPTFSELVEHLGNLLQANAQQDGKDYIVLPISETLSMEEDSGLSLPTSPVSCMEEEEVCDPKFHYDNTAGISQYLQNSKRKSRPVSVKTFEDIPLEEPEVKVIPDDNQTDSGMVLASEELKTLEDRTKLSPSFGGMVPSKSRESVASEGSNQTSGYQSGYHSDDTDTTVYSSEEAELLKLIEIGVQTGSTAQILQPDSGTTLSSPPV
How it was run: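 Read-out: phospho-KDR in cell lysates by DuoSet IC ELISA, normalised between VEGF-stimulated DMSO wells (100%) and unstimulated wells (0%). Human endothelial cells were starved overnight in serum-free medium, exposed to compound for 1 h, and then pulsed with 100 ng/mL VEGF165 for 5 min.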

Sequence of Met (phospho-Met, HGF-stimulated PC-3 prostate cancer cells) (P08581 25-1390): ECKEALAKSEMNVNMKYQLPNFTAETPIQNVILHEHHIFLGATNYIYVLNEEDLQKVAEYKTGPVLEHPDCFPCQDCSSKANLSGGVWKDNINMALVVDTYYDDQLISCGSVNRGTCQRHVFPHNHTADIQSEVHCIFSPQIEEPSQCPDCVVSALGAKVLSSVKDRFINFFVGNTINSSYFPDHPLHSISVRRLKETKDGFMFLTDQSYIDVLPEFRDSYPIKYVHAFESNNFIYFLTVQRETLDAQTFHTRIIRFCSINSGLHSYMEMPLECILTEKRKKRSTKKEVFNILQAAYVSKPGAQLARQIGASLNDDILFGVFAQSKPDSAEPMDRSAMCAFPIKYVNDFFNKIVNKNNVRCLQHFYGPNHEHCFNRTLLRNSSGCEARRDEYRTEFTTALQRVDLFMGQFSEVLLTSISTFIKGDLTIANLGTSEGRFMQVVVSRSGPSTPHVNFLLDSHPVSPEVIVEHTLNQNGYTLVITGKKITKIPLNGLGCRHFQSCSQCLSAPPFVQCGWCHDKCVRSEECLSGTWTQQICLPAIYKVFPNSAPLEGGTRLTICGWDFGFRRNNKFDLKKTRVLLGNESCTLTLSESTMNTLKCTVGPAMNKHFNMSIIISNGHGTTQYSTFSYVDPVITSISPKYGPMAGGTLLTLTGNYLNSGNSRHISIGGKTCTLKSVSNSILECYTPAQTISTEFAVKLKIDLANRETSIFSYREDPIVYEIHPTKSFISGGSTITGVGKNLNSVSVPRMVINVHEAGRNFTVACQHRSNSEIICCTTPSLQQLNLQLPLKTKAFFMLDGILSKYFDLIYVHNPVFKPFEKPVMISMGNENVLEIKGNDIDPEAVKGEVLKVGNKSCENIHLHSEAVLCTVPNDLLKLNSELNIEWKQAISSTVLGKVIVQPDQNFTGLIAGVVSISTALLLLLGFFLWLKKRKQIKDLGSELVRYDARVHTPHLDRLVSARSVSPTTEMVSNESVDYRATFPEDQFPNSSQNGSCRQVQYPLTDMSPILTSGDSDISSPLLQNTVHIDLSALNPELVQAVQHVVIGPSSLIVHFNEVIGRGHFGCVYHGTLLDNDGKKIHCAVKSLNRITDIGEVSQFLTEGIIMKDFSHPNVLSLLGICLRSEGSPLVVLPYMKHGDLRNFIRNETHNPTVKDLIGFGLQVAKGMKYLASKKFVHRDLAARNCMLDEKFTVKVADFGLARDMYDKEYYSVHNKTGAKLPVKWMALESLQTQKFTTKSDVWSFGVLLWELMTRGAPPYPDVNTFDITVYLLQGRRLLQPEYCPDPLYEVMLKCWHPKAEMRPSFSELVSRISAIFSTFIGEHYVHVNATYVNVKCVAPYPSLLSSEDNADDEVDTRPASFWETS

| Structure (SMILES) | IC50 [1] [µM] | IC50 [2] [µM] | IC50 [3] [µM] |
| --- | --- | --- | --- |
| COc1cc2nccc(Oc3ccc(NC(=O)c4cnc(C(C)(C)C)c(-c5ccc(F)cc5)c4O)cc3F)c2nc1OC [Compound 155, 6-tert-Butyl-N-[4-[(6,7-dimethoxy-1,5-naphthyridin-4-yl)oxy]-3-fluorophenyl]-5-(4-fluorophenyl)-4-hydroxypyridine-3-carboxamide] | 0.1 to 0.3 | < 0.1 | > 0.3 |
| Cc1ncc(C(=O)Nc2ccc(Oc3ccnc4cc(C(F)(F)F)cnc34)c(F)c2)c(O)c1-c1ccc(F)cc1 [Compound 151, 5-(4-Fluorophenyl)-N-[3-fluoro-4-[[7-(trifluoromethyl)-1,5-naphthyridin-4-yl]oxy]phenyl]-4-hydroxy-6-methylpyridine-3-carboxamide] | < 0.1 | < 0.1 | < 0.1 |
| COc1cc2nccc(Oc3ccc(NC(=O)c4cn(CCN5CCOCC5)cc(-c5ccc(F)cc5)c4=O)cc3F)c2nc1OC [Compound 157, N-[4-[(6,7-Dimethoxy-1,5-naphthyridin-4-yl)oxy]-3-fluorophenyl]-5-(4-fluorophenyl)-1-(2-morpholin-4-ylethyl)-4-oxopyridine-3-carboxamide] | < 0.1 | < 0.1 | 0.1 to 0.3 |
| COc1cnc2c(Oc3ccc(NC(=O)c4cncc(-c5ccc(F)cc5)c4O)cc3F)ccnc2c1 [Compound 120, N-[3-Fluoro-4-[(7-methoxy-1,5-naphthyridin-4-yl)oxy]phenyl]-5-(4-fluorophenyl)-4-hydroxypyridine-3-carboxamide] | < 0.1 | < 0.1 | < 0.1 |
| CCn1cc(C(=O)Nc2ccc(Oc3ccnc4cc(OC)cnc34)cc2)c(=O)c(-c2ccc(F)cc2)c1 [Compound 169, 1-Ethyl-5-(4-fluorophenyl)-N-[4-[(7-methoxy-1,5-naphthyridin-4-yl)oxy]phenyl]-4-oxopyridine-3-carboxamide] | < 0.1 | < 0.1 | > 0.3 |
| COc1cc2nccc(Oc3ccc(NC(=O)c4cn(C(C)C)cc(-c5ccc(F)cc5)c4=O)cc3)c2nc1OC [Compound 122, N-[4-[(6,7-Dimethoxy-1,5-naphthyridin-4-yl)oxy]phenyl]-5-(4-fluorophenyl)-4-oxo-1-propan-2-ylpyridine-3-carboxamide] | < 0.1 | < 0.1 | 0.1 to 0.3 |
| COc1nc2c(Oc3ccc(NC(=O)c4cn(C(C)C)c(C)c(-c5ccc(F)cc5)c4=O)cc3F)ccnc2cc1Br [Compound 132, N-[4-[(7-Bromo-6-methoxy-1,5-naphthyridin-4-yl)oxy]-3-fluorophenyl]-5-(4-fluorophenyl)-6-methyl-4-oxo-1-propan-2-ylpyridine-3-carboxamide] | 0.1 to 0.3 | < 0.1 | 0.1 to 0.3 |
| COc1cnc2c(Oc3ccc(NC(=O)c4cncc(-c5ccc(F)cc5)c4O)cc3)ccnc2c1 [Compound 146, 5-(4-Fluorophenyl)-4-hydroxy-N-[4-[(7-methoxy-1,5-naphthyridin-4-yl)oxy]phenyl]pyridine-3-carboxamide] | < 0.1 | < 0.1 | < 0.1 |
| COc1nc2c(Oc3ccc(NC(=O)c4cnc(C)c(-c5ccc(F)cc5)c4O)cc3F)ccnc2cc1Br [Compound 130, N-[4-[(7-Bromo-6-methoxy-1,5-naphthyridin-4-yl)oxy]-3-fluorophenyl]-5-(4-fluorophenyl)-4-hydroxy-6-methylpyridine-3-carboxamide] | < 0.1 | < 0.1 | < 0.1 |
| CCn1cc(C(=O)Nc2ccc(Oc3ccnc4cc(OC)cnc34)c(F)c2)c(=O)c(-c2ccc(F)cc2)c1C [Compound 164, 1-Ethyl-N-[3-fluoro-4-[(7-methoxy-1,5-naphthyridin-4-yl)oxy]phenyl]-5-(4-fluorophenyl)-6-methyl-4-oxopyridine-3-carboxamide] | < 0.1 | < 0.1 | > 0.3 |
| COc1cnc2c(Oc3ccc(NC(=O)c4cn(C(C)(C)C)c(C)c(-c5ccc(F)cc5)c4=O)cc3F)ccnc2c1 [Compound 166, 1-tert-Butyl-N-[3-fluoro-4-[(7-methoxy-1,5-naphthyridin-4-yl)oxy]phenyl]-5-(4-fluorophenyl)-6-methyl-4-oxopyridine-3-carboxamide] | < 0.1 | < 0.1 | > 0.3 |

The remaining lines, values ahead:

| IC50 [1] [µM] | IC50 [2] [µM] | IC50 [3] [µM] | Structure (SMILES) |
| --- | --- | --- | --- |
| < 0.1 | < 0.1 | < 0.1 | Cc1nc2c(Oc3ccc(NC(=O)c4cnc(C)c(-c5ccc(F)cc5)c4O)cc3)ccnc2cc1-c1cnn(C(F)F)c1 [Compound 617, N-[4-[[7-[1-(Difluoromethyl)pyrazol-4-yl]-6-methyl-1,5-naphthyridin-4-yl]oxy]phenyl]-5-(4-fluorophenyl)-4-hydroxy-6-methylpyridine-3-carboxamide hydrochloride] |
| < 0.1 | < 0.1 | < 0.1 | Cc1ncc(C(=O)Nc2ccc(Oc3ccnc4cc(C(C)C)cnc34)c(F)c2)c(O)c1-c1ccc(F)cc1 [Compound 596, 5-(4-Fluorophenyl)-N-[3-fluoro-4-[(7-propan-2-yl-1,5-naphthyridin-4-yl)oxy]phenyl]-4-hydroxy-6-methylpyridine-3-carboxamide] |
| < 0.1 | < 0.1 | < 0.1 | COc1cc2nccc(Oc3ccc(NC(=O)c4c(C)nc(C)c(-c5ccc(F)cc5)c4O)cc3)c2nc1OC [Compound 173, N-[4-[(6,7-Dimethoxy-1,5-naphthyridin-4-yl)oxy]phenyl]-5-(4-fluorophenyl)-4-hydroxy-2,6-dimethylpyridine-3-carboxamide] |
| < 0.1 | < 0.1 | < 0.1 | Cc1nc2c(Oc3ccc(NC(=O)c4cnc(C)c(-c5ccc(F)cc5)c4O)cc3F)ccnc2cc1-c1cnn(C(F)F)c1 [Compound 615, N-[4-[[7-[1-(Difluoromethyl)pyrazol-4-yl]-6-methyl-1,5-naphthyridin-4-yl]oxy]-3-fluorophenyl]-5-(4-fluorophenyl)-4-hydroxy-6-methylpyridine-3-carboxamide hydrochloride] |
| < 0.1 | < 0.1 | > 0.3 | CNc1c(-c2ccc(F)cc2)c(=O)c(C(=O)Nc2ccc(Oc3ccnc4cc(OC)cnc34)c(F)c2)cn1C [Compound 585, N-[3-Fluoro-4-[(7-methoxy-1,5-naphthyridin-4-yl)oxy]phenyl]-5-(4-fluorophenyl)-1-methyl-6-(methylamino)-4-oxopyridine-3-carboxamide] |
| < 0.1 | < 0.1 | < 0.1 | Cc1ncc(C(=O)Nc2ccc(Oc3ccnc4cc(-c5cnn(C(F)F)c5)cnc34)cc2)c(O)c1-c1ccc(F)cc1 [Compound 611, N-[4-[[7-[1-(Difluoromethyl)pyrazol-4-yl]-1,5-naphthyridin-4-yl]oxy]phenyl]-5-(4-fluorophenyl)-4-hydroxy-6-methylpyridine-3-carboxamide] |
| < 0.1 | 0.1 to 0.3 | < 0.1 | COc1cc2nccc(Oc3ccc(NC(=O)c4cnc(C)c(-c5ccc(F)cc5)c4O)cc3F)c2nc1NS(C)(=O)=O [Compound 584, N-[3-Fluoro-4-[[6-(methanesulfonamido)-7-methoxy-1,5-naphthyridin-4-yl]oxy]phenyl]-5-(4-fluorophenyl)-4-hydroxy-6-methylpyridine-3-carboxamide] |
| < 0.1 | < 0.1 | < 0.1 | Cc1ncc(C(=O)Nc2ccc(Oc3ccnc4cc(C(C)C)cnc34)cc2)c(O)c1-c1ccc(F)cc1 [Compound 594, 5-(4-Fluorophenyl)-4-hydroxy-6-methyl-N-[4-[(7-propan-2-yl-1,5-naphthyridin-4-yl)oxy]phenyl]pyridine-3-carboxamide] |
| < 0.1 | < 0.1 | < 0.1 | Cc1ncc(C(=O)Nc2ccc(Oc3ccnc4cnccc34)cc2)c(O)c1-c1ccc(F)cc1 [Compound 643, 5-(4-fluorophenyl)-4-hydroxy-6-methyl-N-[4-(1,7-naphthyridin-4-yloxy)phenyl]pyridine-3-carboxamide] |
| 0.1 to 0.3 | < 0.1 | > 0.3 | Cc1nc2c(Oc3ccc(NC(=O)c4cn(C(C)C)c(C)c(-c5ccc(F)cc5)c4=O)cc3)ccnc2cc1-c1cnn(C(F)F)c1 [Compound 612, N-[4-[[7-[1-(Difluoromethyl)pyrazol-4-yl]-6-methyl-1,5-naphthyridin-4-yl]oxy]phenyl]-5-(4-fluorophenyl)-6-methyl-4-oxo-1-propan-2-ylpyridine-3-carboxamide hydrochloride] |
| 0.1 to 0.3 | < 0.1 | > 0.3 | COc1cnc2c(Oc3ccc(NC(=O)c4cn(C)c(C#N)c(-c5ccc(F)cc5)c4=O)cc3F)ccnc2c1 [Compound 586, 6-Cyano-N-[3-fluoro-4-[(7-methoxy-1,5-naphthyridin-4-yl)oxy]phenyl]-5-(4-fluorophenyl)-1-methyl-4-oxopyridine-3-carboxamide] |
| < 0.1 | < 0.1 | 0.1 to 0.3 | CNc1nc2c(Oc3ccc(NC(=O)c4cn(C(C)C)c(C)c(-c5ccc(F)cc5)c4=O)cc3F)ccnc2cc1OC [Compound 582, N-[3-Fluoro-4-[[7-methoxy-6-(methylamino)-1,5-naphthyridin-4-yl]oxy]phenyl]-5-(4-fluorophenyl)-6-methyl-4-oxo-1-propan-2-ylpyridine-3-carboxamide] |
